From publication PMC8298097 (eLife, 2021)

Columns and labels:
[1] = tested on: GIPR; details: maximum response compared with human GIP; ref Sparre-Ulrich et al., 2016; Bailey, 2020; cited from earlier work
Description: Species differences in class B1 receptor responsiveness are diversified and receptor specific, which is tolerable for some receptors such as GLP-1R and GCGR, but leads to concerns for others like GIPR and parathyroid hormone receptor-2 (PTH2R) ([Sparre-Ulrich et al., 2016]; [Hoare et al., 1999]). […] Such a divergence is not caused by changes in peptide potency, but r ...

[2] = tested on: GCGR; details: cognate receptor, ref Yuliantie et al., 2020, Darbalaei et al.; cited from earlier work
[3] = biological target: T1, human GIPR Y68A, HA-Flag-3GSA-GIPR(22-466) (human) (UniProt P48546)
T1 sequence: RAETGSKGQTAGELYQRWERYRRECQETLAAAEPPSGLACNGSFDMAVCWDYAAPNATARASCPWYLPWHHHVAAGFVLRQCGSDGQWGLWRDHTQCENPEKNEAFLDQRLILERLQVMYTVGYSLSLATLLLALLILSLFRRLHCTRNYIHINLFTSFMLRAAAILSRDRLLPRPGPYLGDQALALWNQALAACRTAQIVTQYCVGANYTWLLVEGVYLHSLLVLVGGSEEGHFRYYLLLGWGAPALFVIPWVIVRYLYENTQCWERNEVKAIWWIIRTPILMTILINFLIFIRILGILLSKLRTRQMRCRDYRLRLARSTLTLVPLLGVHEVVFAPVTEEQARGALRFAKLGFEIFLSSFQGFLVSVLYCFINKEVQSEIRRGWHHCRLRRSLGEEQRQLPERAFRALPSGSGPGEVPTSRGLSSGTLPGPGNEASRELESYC

## Human (Pro3)GIP: full agonist with identical maximum response as human GIP (YAPGTFISDYSIAMDKIHQQDFVNWLLAQKGKKNDWKHNITQ; Gastric inhibitory polypeptide; UniProt P09681 52-93, looked up, variant E3P)
[1]
  agonism: full agonist with identical maximum response as human GIP

## glucagon
[2]
  pIC50: 7.31

## glucose-dependent insulinotropic polypeptide GIP(1-42) (from UniProt P09681 52-93)
[3]
  GIP(1-42)-stimulated cAMP accumulation in HEK 293T cells, pEC50: 6.79
